Results taken from patent US5231103A, “Quinolin-2-yl-methoxybenzylhydroxyureas” (Bayer Aktiengesellschaft, priority 1991, dated 1993).
pIC50: −log10 of the molar value.

Molecular target: T1, 5-LO (Homo sapiens, UniProt P09917)
T1 construct: release of leukotriene B4 (LTB4) in polymorphonuclear human leucocytes (PMN); endogenous in cells; host or cells: human polymorphonuclear leucocytes (PMN)
T1 sequence (P09917 1-674): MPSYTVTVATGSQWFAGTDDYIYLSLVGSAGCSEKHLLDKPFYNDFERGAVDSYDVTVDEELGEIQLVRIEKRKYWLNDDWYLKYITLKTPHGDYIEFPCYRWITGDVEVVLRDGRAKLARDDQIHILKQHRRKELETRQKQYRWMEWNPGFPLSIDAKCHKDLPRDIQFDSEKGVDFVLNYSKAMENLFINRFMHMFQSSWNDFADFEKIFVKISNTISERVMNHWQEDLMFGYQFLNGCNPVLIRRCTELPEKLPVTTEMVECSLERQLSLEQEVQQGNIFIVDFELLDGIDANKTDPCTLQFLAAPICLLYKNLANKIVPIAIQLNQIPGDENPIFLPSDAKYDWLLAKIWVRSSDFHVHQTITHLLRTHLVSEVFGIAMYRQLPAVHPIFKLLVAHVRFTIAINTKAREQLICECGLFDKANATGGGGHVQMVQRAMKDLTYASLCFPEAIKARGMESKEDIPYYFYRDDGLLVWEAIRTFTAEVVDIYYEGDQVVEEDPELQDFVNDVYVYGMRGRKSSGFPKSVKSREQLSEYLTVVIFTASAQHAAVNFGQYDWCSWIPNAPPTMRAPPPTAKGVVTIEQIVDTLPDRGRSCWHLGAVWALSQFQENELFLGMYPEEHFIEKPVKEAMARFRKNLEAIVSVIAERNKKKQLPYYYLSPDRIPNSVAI
Assay: lipoxygenase inhibition: release of leukotriene B4 (LTB4) in polymorphonuclear human leucocytes (PMN) after Ca ionophore, by reverse phase HPLC
Assay type: cell-based
Settings: LTB4 release in human PMN after addition of substance and Ca ionophore; RP-HPLC
Method: As a measure of lipoxygenase inhibition, the release of leukotriene B4 (LTB4) in polymorphonuclear human leucocytes (PMN) after addition of substances and Ca ionophore was determined by means of reverse phase HPLC according to Borgeat, P. et al., Proc. Nat. Acad. Sci., 76, 2148-2152 (1979).

pIC50 | Structure (SMILES)
6.60 | NC(=O)N(O)C(c1ccc(OCc2ccc3ccccc3n2)cc1)C1CCCCC1 (centres unmarked) [Example 1, N-[4-(Quinolin-2-yl-methoxy)phenyl-cyclohexyl]methyl-N-hydroxyurea]
5.92 | NC(=O)N(O)C(c1ccc(OCc2ccc3ccccc3n2)cc1)C1CCCC1 (centres unmarked) [Example 2, N-[4-(Quinolin-2-yl-methoxy)phenyl-cyclopentyl]methyl-N-hydroxyurea]
